Key:
Cryptosporidium parvum = assay: Antiparasitic activity against Cryptosporidium parvum in HCT8 cells; assay type: functional, organism-based; details: HCT-8
Meriones unguiculatus [1] = assay: Deparasitization of Cryptosporidium parvum infected gerbils treated with 400 mg/kg at day 12; assay type: functional
Meriones unguiculatus [2] = assay: Reduction of oocyst in stools of Cryptosporidium parvum infected gerbils treated with 400 mg/kg at day 8; assay type: functional; parameters: scale not given: the % may be the effect or the level left
Meriones unguiculatus [3] = assay: Reduction of oocyst in stools of Cryptosporidium parvum infected gerbils treated with 400 mg/kg at day 12; assay type: functional; parameters: scale not given: the % may be the effect or the level left
Plasmodium falciparum = assay: Antiparasitic activity against Plasmodium falciparum T9-96 infected […] cells; assay type: functional, organism-based
Trichomonas vaginalis = assay: Antiparasitic activity against Trichomonas vaginalis in […] cells; assay type: functional, organism-based; details: UCH-1
Meriones unguiculatus [4] = assay: Reduction of oocyst in stools of Cryptosporidium parvum infected gerbils treated with 200 mg/kg at day 8; assay type: functional; parameters: scale not given: the % may be the effect or the level left
Meriones unguiculatus [5] = assay: Deparasitization of Cryptosporidium parvum infected gerbils treated with 200 mg/kg at day 8; assay type: functional
Meriones unguiculatus [6] = assay: Deparasitization of Cryptosporidium parvum infected gerbils treated with 400 mg/kg at day 8; assay type: functional
Meriones unguiculatus [7] = assay: Deparasitization of Cryptosporidium parvum infected gerbils treated with 100 mg/kg at day 8; assay type: functional
Meriones unguiculatus [8] = assay: Reduction of oocyst in stools of Cryptosporidium parvum infected gerbils treated with 100 mg/kg at day 8; assay type: functional; parameters: scale not given: the % may be the effect or the level left

| IC50 (Cryptosporidium parvum) [µM] | SMILES | further results |
| --- | --- | --- |
| 70.8 | O=C(Cc1ccc([N+](=O)[O-])cc1)c1c(O)cc(O)cc1O | – |
| 0.6 | CCOC(=O)c1oc2cc(O)cc(O)c2c(=O)c1-c1ccc(Br)cc1 | Activity (Meriones unguiculatus [1]): 13%; Activity (Meriones unguiculatus [2]): 53.5%; Activity (Meriones unguiculatus [3]): 67% |
| 20.1 | O=C(O)c1oc2cc(O)cc(O)c2c(=O)c1-c1cccc(Br)c1 | – |
| 11.7 | O=C1c2c(O)cc(O)cc2OCC1c1ccc([N+](=O)[O-])cc1 (stereo not drawn) | – |
| 1.8 | O=c1c(-c2ccc([N+](=O)[O-])cc2)coc2cc(O)cc(O)c12 | IC50 (Plasmodium falciparum): 20 µM; IC50 (Trichomonas vaginalis): 8 µM |
| 0.3 | O=c1c(-c2cccc([N+](=O)[O-])c2)coc2cc(O)cc(O)c12 | – |
| 64.1 | CCOC(=O)c1oc2cc(O)cc(O)c2c(=O)c1-c1ccc([N+](=O)[O-])cc1 | – |
| 15.9 | O=C(Cc1ccc(Br)cc1)c1c(O)cc(O)cc1O | – |
| 1.3 | O=c1c(-c2ccc(Br)cc2)coc2cc(O)cc(O)c12 | – |
| 0.4 | O=c1c(-c2cccc(Br)c2)coc2cc(O)cc(O)c12 | – |
| 464 | O=C(Cc1cccc([N+](=O)[O-])c1)c1c(O)cc(O)cc1O | – |
| 15.8 | CCOC(=O)c1oc2cc(O)cc(O)c2c(=O)c1-c1cccc([N+](=O)[O-])c1 | – |
| 17.2 | O=C(Cc1cccc(Br)c1)c1c(O)cc(O)cc1O | – |
| 1.6 | CCOC(=O)c1oc2cc(O)cc(O)c2c(=O)c1-c1cccc(Br)c1 | Activity (Meriones unguiculatus [4]): 90.5%; Activity (Meriones unguiculatus [2]): 92%; Activity (Meriones unguiculatus [5]): 60%; Activity (Meriones unguiculatus [6]): 60% |
| – | NC[C@@H]1O[C@H](O[C@H]2[C@@H](O)[C@H](O[C@@H]3[C@@H](O)[C@H](N)C[C@H](N)[C@H]3O[C@H]3O[C@H](CO)[C@@H](O)[C@H](O)[C@H]3N)O[C@@H]2CO)[C@H](N)[C@@H](O)[C@@H]1O [PAROMOMYCIN] | Activity (Meriones unguiculatus [7]): 14%; Activity (Meriones unguiculatus [8]): 17.6% |

| SMILES | IC50 (Cryptosporidium parvum) [µM] | further results |
| --- | --- | --- |
| CC(=O)Oc1ccccc1C(=O)Nc1ncc([N+](=O)[O-])s1 [NITAZOXANIDE] | 3.25 | Activity (Meriones unguiculatus [4]): 55%; Activity (Meriones unguiculatus [5]): 14% |

From ChEMBL document CHEMBL1149465, “Identification of isoflavone derivatives as effective anticryptosporidial agents in vitro and in vivo” (J Med Chem, 2006)
